Assay results reported in patent publication US20230028658A1, “EXPANDED DOSAGE REGIMENS FOR INTEGRIN INHIBITORS” (Pliant Therapeutics, Inc., priority 2021, published 2023).

Columns and labels:
[1] = tested on: IPF-derived human lung fibroblasts; assay: LAP adhesion binding assay, IPF-derived human lung fibroblasts (xCELLigence cell index); format: cell-based; conditions: FIG. 3B, adhesion to LAP
Procedure: (§1) Two latency associated peptide (LAP) adhesion binding assays were devised using primary human lung cells, including normal (healthy) human bronchial epithelial cells and human lung fibroblasts (healthy and IPF).
Human lung fibroblasts derived from normal and IPF lung tissue are known to express αvβ1 integrin. The IPF-derived human lung fibroblasts were prepared for the assay by dissociation with trypsin/EDTA, and were seeded at 20,000 cells per well on 96 well plates (ACEA Bioscience E-plate View, Acea Biosciences; San Diego, Calif.) previously coated with 5 μg/ml of recombinant human LAP (R&D Systems; Minneapolis, Minn.) and blocked with 4% bovine serum albumin. Cell index (electrical impedance) was measured to assess cell attachment/spreading every 3 minutes for 24 hours at 37° C./5% CO2 using the xCELLigence RTCA MP Instrument (Acea Biosciences; San Diego, Calif.). […] In the assay, the IPF-derived human lung fibroblasts were separately incubated with: the αvβ1-selective small molecule inhibitor; the selective antibody αvβ6 inhibitor, 3G9; and compound 5.

[2] = tested on: healthy mice; assay: pSMAD3/SMAD3 in lung tissue and BALF of healthy mice; format: in vivo; conditions: 4 days of compound 5 treatment, FIG. 4B
Source text: It has been previously shown that inhibition of αvβ6 in the lung can be detected though measurement of phospho-SMAD (pSMAD) in alveolar macrophages. Alveolar macrophages are known to operate in a unique niche in the lung, distinct from interstitial macrophages. SMAD3 is a downstream target of the active TGF-β cytokine binding its receptor and in alveolar macrophages it is phosphorylated by homoeostatic levels of TGF-β. Accordingly, it was desirable to know whether inhibition of TGF-β activation using the disclosed compounds would result in reduced SMAD2 and SMAD3 phosphorylation.
Mice (C57BL/6) were divided into healthy (n=15), vehicle-treated (n=15), and test article-treated (n=15 per dose) groups. […] […] […] […] […] […] […] Samples were prepared for analysis either directly from lung tissue, or by bronchoalveolar lavage, which washes out the bronchiolar and alveolar space with saline to produce a bronchoalveolar lavage fluid (BALF) in which 80-90% of cells are alveolar macrophages.
FIG. 4A is a graph of PSMAD3/SMAD3 in lung tissue from healthy mice administered PBS vehicle and varying levels of compound 5 for 4 days. FIG. 4B is a graph of PSMAD3/SMAD3 in BALF drawn from the same healthy mice administered PBS vehicle and varying levels of compound 5 for 4 days.

[3] = tested on: normal bronchial epithelial cell; assay: normal bronchial epithelial cell adhesion to LAP (FIG. 3A); format: cell-based
[4] = tested on: IPF-derived lung fibroblasts; assay: cell adhesion in IPF-derived lung fibroblasts (FIG. 3B); format: cell-based
[5] = tested on: human bronchial epithelial cells; assay: LAP adhesion binding assay, normal human bronchial epithelial cells (xCELLigence cell index); format: cell-based; conditions: FIG. 3A; cell index (electrical impedance)
Procedure: as §1
Human bronchial epithelial cells are known to express αvβ6 integrin in culture. Human bronchial epithelial cells were prepared for the assay by dissociation with trypsin/EDTA and were then seeded at 20,000 cells per well on 96 well plates (ACEA Bioscience E-plate View, Acea Biosciences; San Diego, Calif.) previously coated with 5 μg/ml of recombinant human LAP (R&D Systems; Minneapolis, Minn.) and blocked with 4% bovine serum albumin. Cell index (electrical impedance) was measured to assess cell attachment/spreading every 3 minutes for 24 hours at 37° C./5% CO2 using the xCELLigence RTCA MP Instrument (Acea Biosciences; San Diego, Calif.).

[6] = tested on: COL1A1 expression; assay: PCLS from IPF lung tissue, seven days, COL1A1 expression; format: cell-based, human; conditions: PCLS from a single IPF lung tissue sample, Compound 5 200 pM to 1 μM, significant reduction observed ≥2 nM, FIG. 6E
Procedure: PCLS from 5-7 idopathic pulmonary fibrosis (IPF) lung tissue samples were cultured for seven days with one of: DMSO; Compound 5 at 200 nM; nintedanib at 75 nM; pirfenidone at 50 μm; a combination of Compound 5 at 200 nM and nintedanib at 75 nM; a combination of Compound 5 at 200 nM and pirfenidone at 50 μm; or an Alk5 inhibitor at 1 μm. […] FIG. 6D is a bar graph showing relative expression of COL1A1 in precision cut lung slices (PCLS) from idopathic pulmonary fibrosis (IPF) lung tissue upon exposure to Compound 5, clinical standard of care compounds nintedanib (Nin) and pirfenidone (Pirf), and an ALK5 inhibitor, all versus DMSO control.
PCLS from a single IPF lung tissue sample were cultured for seven days with Compound 5 at concentrations of 200 pM, 2 nM, 60 nM, 200 nM, and 1 μM, along with 0.1% DMSO control and an Alk5 inhibitor at 1 μM. […] COL1A1 expression is also graphed for the PCLS in the presence of 0.1% DMSO control, and an Alk5 inhibitor at 1 μM.

[7] = target: αvβ6 (Homo sapiens, UniProt P06756+P18564); assay: IC50 of αvβ6 adjusted for protein binding
[8] = First-in-human SAD and MAD pharmacokinetics (Example B12); format: in vivo; conditions: plasma, healthy subjects, oral solution, SAD 15-75 mg and MAD 10-40 mg, read-out: calculated half life
Procedure: Healthy human subjects (N=85) were selected for single ascending dose (SAD) and multiple ascending dose (MAD) first-in-human studies. A solution for oral administration was prepared, containing 10 mg/mL of compound 5 in a 50:50 mixture of ORA-SWEET® SF (PERRIGO®, Allegan, Mich.) and sterile water for irrigation. Sufficient solution was administered orally to the subjects to provide between 15 mg/dose and 75 mg/dose of compound 5 in the SAD study and between 10 mg/dose and 40 mg/dose of compound 5 in the MAD study. Concentrations of compound 5 were measured in the subjects by obtaining a sample of plasma from each subject at desired intervals, and subjecting the plasma to liquid chromatography-mass spectrometry-mass spectrometry (LC-MS/MS), with quantification using a calibration curve determined from a range of solutions at standardized concentrations. The lower limit of quantitation (LLOQ) of the assay was 1 ng/mL and the calibration curve range was 1 to 500 ng/mL.

[9] = tested on: lung Col1a1 expression; assay: Precision cut lung slices from human IPF explants, 3 days, Col1a1 expression; format: cell-based; conditions: human IPF PCLS, 3G9 ≥400 ng/mL, compound 5 179 nM, ALK5 inhibitor 1 μM, FIG. 6C
Source text: Explanted lung tissue was obtained from human IPF subjects and inflated with agarose as described in the preceding examples. Biopsy cores were obtained from the agarose-inflated lung tissue. The biopsy cores were subjected to precision slicing to obtain several hundred μm thick. Individual slices were distributed in a multiwell culture plate and cultured for […] under control (DMSO) and test compound conditions. The viability of the slices over the course of culturing was confirmed by WST-1 assay of mitochondrial activity.

Chain of αvβ6 (P06756 31-1048): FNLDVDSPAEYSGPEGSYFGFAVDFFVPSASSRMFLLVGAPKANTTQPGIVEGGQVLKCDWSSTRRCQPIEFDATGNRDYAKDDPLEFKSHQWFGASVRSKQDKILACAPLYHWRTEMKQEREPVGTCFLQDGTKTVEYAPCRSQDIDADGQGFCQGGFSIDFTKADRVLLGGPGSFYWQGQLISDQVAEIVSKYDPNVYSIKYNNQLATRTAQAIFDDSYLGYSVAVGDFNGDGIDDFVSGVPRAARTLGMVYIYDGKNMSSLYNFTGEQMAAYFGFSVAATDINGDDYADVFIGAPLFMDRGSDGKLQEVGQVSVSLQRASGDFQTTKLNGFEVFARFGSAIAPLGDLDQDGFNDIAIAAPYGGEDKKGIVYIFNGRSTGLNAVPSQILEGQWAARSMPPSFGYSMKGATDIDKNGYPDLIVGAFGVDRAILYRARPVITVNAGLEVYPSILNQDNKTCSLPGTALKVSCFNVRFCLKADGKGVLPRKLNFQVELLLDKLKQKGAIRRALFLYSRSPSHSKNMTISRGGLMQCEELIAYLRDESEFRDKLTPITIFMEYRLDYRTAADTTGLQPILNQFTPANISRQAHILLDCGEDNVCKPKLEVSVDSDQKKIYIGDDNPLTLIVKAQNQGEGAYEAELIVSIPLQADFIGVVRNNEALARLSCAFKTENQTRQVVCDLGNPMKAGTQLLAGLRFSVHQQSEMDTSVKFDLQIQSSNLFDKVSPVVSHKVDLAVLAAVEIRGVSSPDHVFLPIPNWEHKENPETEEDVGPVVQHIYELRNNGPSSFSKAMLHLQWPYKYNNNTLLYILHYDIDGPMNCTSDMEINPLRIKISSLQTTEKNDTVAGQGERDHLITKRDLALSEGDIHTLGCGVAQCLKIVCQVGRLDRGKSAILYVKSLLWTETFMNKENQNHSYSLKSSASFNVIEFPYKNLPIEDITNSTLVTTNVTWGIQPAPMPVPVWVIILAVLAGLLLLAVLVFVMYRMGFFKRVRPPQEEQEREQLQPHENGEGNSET
Chain of αvβ6 (P18564 22-788): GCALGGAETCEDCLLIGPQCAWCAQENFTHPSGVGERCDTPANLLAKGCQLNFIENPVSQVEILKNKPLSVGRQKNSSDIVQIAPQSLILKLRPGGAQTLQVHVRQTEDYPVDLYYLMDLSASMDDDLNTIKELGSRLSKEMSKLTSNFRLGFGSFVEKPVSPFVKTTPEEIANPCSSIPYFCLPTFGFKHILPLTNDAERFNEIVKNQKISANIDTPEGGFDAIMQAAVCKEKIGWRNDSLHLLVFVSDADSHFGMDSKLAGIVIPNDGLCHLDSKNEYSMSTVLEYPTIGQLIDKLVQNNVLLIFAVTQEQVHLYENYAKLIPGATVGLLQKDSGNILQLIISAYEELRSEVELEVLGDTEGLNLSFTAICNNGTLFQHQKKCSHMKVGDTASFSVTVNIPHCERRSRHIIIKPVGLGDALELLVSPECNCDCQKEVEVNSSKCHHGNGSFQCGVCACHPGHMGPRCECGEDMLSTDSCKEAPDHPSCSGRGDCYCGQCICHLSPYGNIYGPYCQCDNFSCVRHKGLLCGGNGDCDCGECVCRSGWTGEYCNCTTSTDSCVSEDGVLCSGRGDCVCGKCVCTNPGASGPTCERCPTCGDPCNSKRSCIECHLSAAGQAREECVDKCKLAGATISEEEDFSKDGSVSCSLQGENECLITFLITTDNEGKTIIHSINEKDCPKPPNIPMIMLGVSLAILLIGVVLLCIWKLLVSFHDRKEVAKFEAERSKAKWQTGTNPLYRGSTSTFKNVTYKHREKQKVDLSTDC

IC50 [7]: 0.01 µM | half-life [8]: 35 to 55 h
SMILES: COCCN(CCCCc1ccc2c(n1)NCCC2)CC[C@H](Nc1ncnc2ccccc12)C(=O)O [Compound 5, (S)-4-((2-methoxyethyl) (4-(5,6,7,8-tetrahydro-1,8-naphthyridin-2-yl)butyl)amino)-2-(quinazolin-4-ylamino) butanoic acid]
inhibition of cell adhesion in the IPF-derived lung fibroblasts [1]: substantially inhibited | PSMAD3/SMAD3 in cells isolated from BALF [2]: approximately 50 % of the untreated levels | normal bronchial epithelial cell adhesion to LAP [3]: substantially inhibited | cell adhesion in the IPF-derived lung fibroblasts [4]: substantially inhibited | inhibition of normal bronchial epithelial cell adhesion to LAP [5]: substantially inhibited | reduction in COL1A1 expression at ≥2 nM [6]: ≥ 47% | lung Col1a1 expression [9]: substantial, statistically significant (p<0.01 vs vehicle) decrease
